For one test, the system named is iMCD. The following applies: literature case reports; cited from earlier work.
The subject of test [1] is iMCD patients. The test is described as follows: Siltuximab phase II study (NCT01024036): durable symptomatic and tumor response criteria. The class given is in vivo, human.
Excerpt: Clinical and laboratory data were collected at the time of sample draw for iMCD patients. To assess disease activity, we adapted a previously published disease activity score using C-reactive protein, hemoglobin, and albumin.
For test [2], the system named is CXCL13. The test is described as follows: Serum proteomics (SomaLogic SOMAscan) during siltuximab therapy, phase II study. The format is in vivo, human. Here is the method: Methods. Clinical data and serum samples were collected as part of NCT01024036. We measured serum protein analytes in the 52 subjects who were treated with anti-IL6 therapy, as well as the 26 patients in the control arm, at day 1, day 8, and day 64 of therapy (infusions administered every 21 days). Serum samples from 44 healthy donors were also analyzed. Of the 1,305 analytes measured using SomaLogic SOMAscan, 1,178 passed QC and were included in analyses. Each analyte was log 2 transformed and capped at the 2.5th and 97.5th percentiles. Response to anti-IL6 therapy was determined by independent review in NCT01024036. Data processing was performed using the Medidata Rave Omics machine learning platform and R v3.4.4.
Linear mixed effects models were used to detect whether kinetic changes in protein expression were associated with anti-IL6 response. Upon running the full model with the selected covariates, the p-values of the interaction between time point and response were used to test for differences between responders and nonresponders.
A separate model was fitted using each protein, and False Discovery Rates (FDR) were estimated by the Benjamini-Hochberg method with alpha <0.05.

Test [3] concerns CXCL13. The test can be described thus: Serum CXCL13 levels (absolute quantification, RBM) in validation cohort, siltuximab phase I study. The format is in vivo, human. An excerpt: Samples collected in real-world practice were included to better represent the full spectrum of iMCD. We obtained samples from 60 patients with diseases that overlap in clinical and pathological presentation with iMCD, including HHV8-associated MCD (N=20), HL (N=20), and RA (N=20), which are caused by viral, neoplastic, and autoimmune mechanisms, respectively, and 44 healthy individuals. […] All serum samples from the phase I and the phase II studies were collected and processed following respective standardized protocols.
For the 23 samples in the validation cohort, Rules Based Medicine (RBM) DiscoveryMap v1.0 was used to measure 190 serum analytes by a microsphere-based, multiplexed immunoassay platform.^18 RBM values were converted to standardized units and log 2 transformed. Of 190 proteins measured by RBM, 154 can be mapped to targets in the Somalogic platform, and 140 remained for analysis after filtering out low-quality targets on both platforms.
A […] was generated to identify 17% as the optimal reduction in CXCL13 levels to maximize sensitivity and specificity of this indicator (FIGS. 7 & 14). Specifically, if a patient has a 17% or greater reduction in CXCL13 levels, then the patient is highly likely to respond (FIGS. 15-16, Table 4). The proteins from patients in the discovery cohort described supra were quantified using a relative quantification while the protein quantification in the validation described in Table 4 utilized absolute quantification.

The subject of test [4] is iMCD patients. The settings on record: cited from earlier work.
For the next test, the system named is CD19+CD27-IgD+B cells. The test can be described thus: In vitro treatment of flow-sorted iMCD patient B cells, RNA sequencing and geneset enrichment analysis of Hallmark pathways. The format is cell-based, human. The following applies: serum plus rhCXCL13 compared to serum only. Here is the method: An in vitro experiment was performed that included flow sorting CD19+CD27-IgD+B cells from peripheral blood mononuclear cells (PBMCs) derived from an iMCD patient and treating the CD19+CD27-IgD+B cells with either (A) serum only, (B) serum plus recombinant human CXCL13 (rhCXCL13) to assess the effects of CXCL13 on iMCD patient B cells, or (C) serum, rhCXCL13, and anti-CXCL13 (anti-CXCL13) antibody to assess the effects of this blocking antibody. Each of these samples had geneset enrichment analysis performed of the Hallmark pathways on RNA sequencing data.

The mark [5] stands for this setting: Non-Responders (N = 13), Day 43.

Regarding `C=CC[C@@H]1/C=C(\C)C[C@H](C)C[C@H](OC)[C@H]2O[C@@](O)(C(=O)C(=O)N3CCCC[C@H]3C(=O)O[C@H](/C(C)=C/[C@@H]3CC[C@@H](O)[C@H](OC)C3)[C@H](C)[C@@H](O)CC1=O)[C@H](C)C[C@@H]2OC` [tacrolimus], the “reported activity in iMCD” value in the test with iMCD was “potential activity”.

Take siltuximab: the “patients with lymph node response by Cheson criteria who also achieved durable symptomatic response” value in the test with iMCD patients [1] is 18 of 20. The “CXCL13 levels in non-responders” value in the test on CXCL13 [2] (by day 64) is “remained elevated”. For the same molecule, the “CXCL13 levels in siltuximab responders” value with CXCL13 [2] (by day 64) was “decreased to levels approaching the healthy donor range”. In the test with CXCL13 [2] (day 8, seven days after first siltuximab administration), the “9 serum proteins (IgA, BCMA, NPS-PLA2, ART, IL-18 BPa, CD5L, b2-Microglobulin, CXCL13, NRP1) in responders compared to non-responders” value is reported as “significantly decreased”. In addition, the “CXCL13, Median (IQR)” value is given as 249 (73.1, 466) pg/ml in the test on CXCL13 [3] (Non-Responders (N = 13), Day 22/29, baseline 155 (79, 293)); 218 (62, 371) pg/ml in the test with CXCL13 [3] (setting [5]); 41.1 (23.5, 62) pg/ml in the test on CXCL13 [3] (Responders (N = 10), Day 22/29, baseline 116 (57, 258)); 94.4 (29.6, 147) pg/ml in the test on CXCL13 [3] (Responders (N = 10), Day 43). For the same molecule, the “CXCL13, Mean (SD)” value in the test with CXCL13 [3] (Non-Responders (N = 13), Day 22/29, baseline 234 (240)) is recorded as 337 (381) pg/ml; in the test on CXCL13 [3] (setting [5]), 229.1 (190.3) pg/ml; with CXCL13 [3] (Responders (N = 10), Day 22/29, baseline 241 (361)) it was 71.5 (94.5) pg/ml; in the test with CXCL13 [3] (Responders (N = 10), Day 43) it was 94.8 (70.6) pg/ml. Further, in the test on iMCD patients [4] (Phase II study NCT01024036, assessed after a minimum of 48 weeks), the “patients who met response criteria” value was “one-third”. Besides, the “iMCD patients who did not meet primary response criteria” value with iMCD patients [4] (siltuximab phase II registrational study) is 66%.

B1: rhCXCL13: recombinant human CXCL13 (protein, UniProt O43927 23-109, looked up)
C-X-C motif chemokine 13: VLEVYYTSLRCRCVQESSVFIPRRFIDRIQILPRGNGCPRKEIIVWKKNKSIVCVDPQAEWIQRMMEVLRKRSSSTLPVPVFKRKIP
B1: in the test on CD19+CD27-IgD+B cells, the “pathways previously found up-regulated in iMCD (IL6-JAK-STAT3, mTORC1, Interferon alpha response, interferon gamma response, complement, TNFα signaling via NFKb)” value is recorded as “up-regulated”.
